# Results published in patent US20250230165A1, “HETEROCYCLIC COMPOUNDS FOR USE IN THE TREATMENT OF CANCER” (ARTIOS PHARMA LIMITED, priority 2021, published 2025).
# Biological target: T1, Human Polθ polymerase domain (aa1820-2590) (Homo sapiens, UniProt O75417)
# T1 construct: Human Polθ polymerase domain (aa1820-2590) was expressed in E. coli; made in house; host or cells: E. coli
# T1 sequence (O75417 1820-2590): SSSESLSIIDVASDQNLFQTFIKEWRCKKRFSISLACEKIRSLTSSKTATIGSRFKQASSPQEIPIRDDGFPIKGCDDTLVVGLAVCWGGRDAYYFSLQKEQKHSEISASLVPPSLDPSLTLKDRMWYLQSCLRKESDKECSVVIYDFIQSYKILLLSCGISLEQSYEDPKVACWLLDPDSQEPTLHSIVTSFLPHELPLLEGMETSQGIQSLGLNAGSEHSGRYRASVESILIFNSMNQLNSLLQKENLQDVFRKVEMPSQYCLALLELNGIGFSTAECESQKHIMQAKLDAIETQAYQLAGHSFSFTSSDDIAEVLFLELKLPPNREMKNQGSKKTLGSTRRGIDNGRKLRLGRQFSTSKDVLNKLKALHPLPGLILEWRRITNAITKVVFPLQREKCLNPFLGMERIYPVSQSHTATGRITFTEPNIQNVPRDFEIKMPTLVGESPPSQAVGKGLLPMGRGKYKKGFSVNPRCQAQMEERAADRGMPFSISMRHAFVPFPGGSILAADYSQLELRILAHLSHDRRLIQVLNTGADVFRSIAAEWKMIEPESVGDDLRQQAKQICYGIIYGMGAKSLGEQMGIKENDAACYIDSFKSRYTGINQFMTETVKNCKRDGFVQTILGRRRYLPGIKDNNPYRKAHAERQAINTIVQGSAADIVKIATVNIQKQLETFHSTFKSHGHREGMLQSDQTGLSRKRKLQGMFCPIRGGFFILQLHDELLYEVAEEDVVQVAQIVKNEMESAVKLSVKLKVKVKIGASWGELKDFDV
# Assay: Polθ Polymerase Domain Kinact/KI Assay (PicoGreen)
# Type: biochemical
# Conditions: 0.8 nM Polθ, 100 nM DNA substrate, kobs vs [I] fit for 2-step covalent inhibitor
# How it was run: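 Kinact and KI derive from fitting kobs versus [I], where kobs were fitted from EDTA-stopped PicoGreen time courses (up to 60 min) in Tris pH 7.5 buffer with 1% DMSO, 0.8 nM enzyme, 100 nM DNA and […].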
row,Kinact/Kl,SMILES
1,2.18e+06 M⁻¹ s⁻¹,"C=C(CN(C)C)C(=O)N1CC(CCCCN2C[C@H]3CC(=O)N(c4cc(C(F)(F)F)cc(C)n4)[C@@H]3C(=O)Nc3cccc(C)c32)C1 [Example 192, (3aR,11aS)-5-(4-(1-(2-((dimethyl-amino)methyl)-acryloyl)azetidin-3-yl)butyl)-6-meth-yl-1-(6-methyl-4-(trifluoromethyl)-pyridin-2-yl)-1,3a,4,5,10,11a-hexahydro-2H-benzo[b]pyrrolo [2,3-f][1,4]diazo-cine-2,11(3H)-dione]"
2,4.38e+06 M⁻¹ s⁻¹,"C/C=C(\CN(C)C)C(=O)N1CC(OCCCN2C[C@H]3CC(=O)N(c4cc(C(F)(F)F)cc(C)n4)[C@@H]3C(=O)N(C)c3cccc(C)c32)C1 [Example 194, (3aR,11aS)-5-(3-((1-((E)-2-((dimeth-ylamino)methyl)-but-2-enoyl)azeti-din-3-yl)oxy)prop-yl)-6,10-dimethyl-1-(6-methyl-4-(trifluoromethyl)-pyridin-2-yl)-1,3a,4,5,10,11a-hexahydro-2H-benzo[b]pyrrolo [2,3-f][1,4]diazo-cine-2,11(3H)-dione]"
3,5.22e+06 M⁻¹ s⁻¹,"C/C=C(\CN(C)C)C(=O)N1CC(c2ccc(CN3C[C@H]4CC(=O)N(c5cc(C(F)(F)F)cc(C)n5)[C@@H]4C(=O)N(C)c4cccc(C)c43)cc2)C1 [Example 195, (3aR,11aS)-5-(4-(1-((E)-2-((dimeth-ylamino)methyl)-but-2-enoyl)azeti-din-3-yl)benzyl)-6,10-dimethyl-1-(6-methyl-4-(tri-fluoromethyl)pyr-idin-2-yl)-1,3a,4,5,10,11a-hexa-hydro-2H-benzo [b]pyrrolo[2,3-f] [1,4]diazocine-2,11(3H)-dione]"
4,2.06e+06 M⁻¹ s⁻¹,"Cc1cc(C(F)(F)F)cc(N2C(=O)C[C@@H]3CN(CCCOC4CN(C(=O)C5=CCCN(C)C5)C4)c4c(C)cccc4N(C)C(=O)[C@H]32)n1 [Example 196, (3aR,11aS)-6,10-dimethyl-5-(3-((1-(1-methyl-1,2,5,6-tetrahydropyridine-3-carbonyl)azeti-din-3-yl)oxy)prop-yl)-1-(6-methyl-4-(trifluoromethyl)-pyridin-2-yl)-1,3a,4,5,10,11a-hexahydro-2H-benzo[b]pyrrolo [2,3-f][1,4]diazo-cine-2,11(3H)-dione]"
5,1.67e+06 M⁻¹ s⁻¹,"C=CC(=O)N1CC(N(C)CCCN2C[C@H]3CC(=O)N(c4cc(C(F)(F)F)cc(C)n4)[C@@H]3C(=O)N(C)c3cccc(C)c32)C1 [Example 205, (3aR,11aS)-5-(3-((1-acryloylazetidin-3-yl)(methyl)amino)propyl)-6,10-dimethyl-1-(6-methyl-4-(trifluoromethyl)pyridin-2-yl)-1,3a,4,5,10,11a-hexahydro-2H-benzo[b]pyrrolo [2,3-f][1,4]diazocine-2,11(3H)-dione]"

# More lines, now with the values behind:
row,SMILES,Kinact/Kl
1,"C=C(CN1CCN(C)CC1)C(=O)N1CC(COCCN2C[C@H]3CC(=O)N(c4cc(C(F)(F)F)cc(C)n4)[C@@H]3C(=O)N(C)c3cccc(C)c32)C1 [Example 193, (3aR,11aS)-6,10-dimethyl-1-(6-methyl-4-(trifluoro-methyl)pyridin-2-yl)-5-(2-((1-(2-((4-methylpiperazin-1-yl)methyl)acrylo-yl)azetidin-3-yl)-methoxy)ethyl)-1,3a,4,5,10,11a-hexahydro-2H-benzo[b]pyrrolo [2,3-f][1,4]diazo-cine-2,11(3H)-dione]",2.58e+06 M⁻¹ s⁻¹
2,"Cc1cc(C(F)(F)F)cc(N2C(=O)C[C@@H]3CN(CCOCC4CN(C(=O)C5=CCCN(C)C5)C4)c4c(C)cccc4N(C)C(=O)[C@H]32)n1 [Example 197, (3aR,11aS)-6,10-dimethyl-5-(2-((1-(1-methyl-1,2,5,6-tetrahydropyridine-3-carbonyl)azeti-din-3-yl)methoxy)-ethyl)-1-(6-methyl-4-(trifluoromethyl)-pyridin-2-yl)-1,3a, 4,5,10,11a-hexa-hydro-2H-benzo [b]pyrrolo[2,3-f] [1,4]diazocine-2,11(3H)-dione]",1.67e+06 M⁻¹ s⁻¹
3,"C#CC(=O)N1CCn2nc(CN3C[C@H]4CC(=O)N(c5cc(C(F)(F)F)cc(C)n5)[C@@H]4C(=O)N(C)c4cccc(C)c43)cc2C1 [Example 198, (3aR,11aS)-6,10-dimethyl-1-(6-methyl-4-(trifluoro-methyl)pyridin-2-yl)-5-((5-propiolo-yl-4,5,6,7-tetra-hydropyrazolo-[1,5-a]pyrazin-2-yl)methyl)-1,3a,4,5, 10,11a-hexahydro-2H-benzo[b]pyr-rolo[2,3-f][1,4] diazocine-2,11(3H)-dione]",700000 M⁻¹ s⁻¹
4,"C#CC(=O)NC12CC(CN3C[C@H]4CC(=O)N(c5cc(C(F)(F)F)cc(C)n5)[C@@H]4C(=O)N(C)c4cccc(C)c43)(C1)C2 [Example 200, N-(3-(((3aR,11aS)-6,10-dimethyl-1-(6-methyl-4-(tri-fluoromethyl)pyri-din-2-yl)-2,11-dioxo-1,2,3,3a,4, 10,11,11a-octa-hydro-5H-benzo[b]pyrrolo[2,3-f][1,4]diazocin-5-yl)-methyl)bicyclo [1.1.1]pentan-1-yl)propiolamide]",690000 M⁻¹ s⁻¹
5,"CC#CC(=O)N1CCn2cc(CN3C[C@H]4CC(=O)N(c5cc(C(F)(F)F)cc(C)n5)[C@@H]4C(=O)N(C)c4cccc(C)c43)nc2C1 [Example 201, (3aR,11aS)-5-((7-(but-2-ynoyl)-5,6,7,8-tetrahydro-imidazo[1,2-a]pyr-azin-2-yl)methyl)-6,10-dimethyl-1-(6-methyl-4-(tri-fluoromethyl)pyr-idin-2-yl)-1,3a,4,5,10,11a-hexa-hydro-2H-benzo [b]pyrrolo[2,3-f] [1,4]diazocine-2,11(3H)-dione]",2.8e+06 M⁻¹ s⁻¹
6,"C=CC(=O)N1CCn2nc(CN3C[C@H]4CC(=O)N(c5cc(C(F)(F)F)cc(C)n5)[C@@H]4C(=O)N(C)c4cccc(C)c43)nc2C1 [Example 202, (3aR,11aS)-5-((7-acryloyl-5,6,7,8-tetrahydro-[1,2,4]triazolo [1,5-a]pyrazin-2-yl)methyl)-6,10-dimethyl-1-(6-methyl-4-(trifluoromethyl)pyridin-2-yl)-1,3a,4,5,10,11a-hexahydro-2H-benzo[b]pyrrolo [2,3-f][1,4]diazocine-2,11(3H)-dione]",5.56e+06 M⁻¹ s⁻¹
7,"C=CC(=O)N1CCn2cc(CN3C[C@H]4CC(=O)N(c5cc(C(F)(F)F)cc(C)n5)[C@@H]4C(=O)N(C)c4cccc(C)c43)nc2C1 [Example 203, (3aR,11aS)-5-((7-acryloyl-5,6,7,8-tetrahydroimidazo [1,2-a]pyrazin-2-yl)methyl)-6,10-dimethyl-1-(6-methyl-4-(trifluoromethyl)pyridin-2-yl)-1,3a,4,5,10,11a-hexahydro-2H-benzo[b]pyrrolo [2,3-f][1,4]diazocine-2,11(3H)-dione]",4.32e+06 M⁻¹ s⁻¹
8,"C=CC(=O)N1CCC(n2cnc(CN3C[C@H]4CC(=O)N(c5cc(C(F)(F)F)cc(C)n5)[C@@H]4C(=O)N(C)c4cccc(C)c43)n2)CC1 [Example 204, (3aR,11aS)-5-((1-(1-acryloylpiperidin-4-yl)-1H-1,2,4-triazol-3-yl)methyl)-6,10-dimethyl-1-(6-methyl-4-(trifluoromethyl)pyridin-2-yl)-1,3a,4,5,10,11a-hexahydro-2H-benzo[b]pyrrolo [2,3-f][1,4]diazocine-2,11(3H)-dione]",980000 M⁻¹ s⁻¹
9,"Cc1cc(C(F)(F)F)cc(N2C(=O)C[C@@H]3CN(Cc4ccc(NC(=O)/C=C/CN(C)C)cc4)c4c(C)cccc4N(C)C(=O)[C@H]32)n1 [Example 207, (E)-N-(4-(((3aR, 11aS)-6,10-dimethyl-1-(6-methyl-4-(trifluoromethyl)pyridin-2-yl)-2,11-dioxo-1,2,3,3a,4,10,11,11a-octahydro-5H-benzo[b]pyrrolo[2,3-f][1,4]diazocin-5-yl)methyl)phenyl)-4-(dimethylamino) but-2-enamide]",1.82e+06 M⁻¹ s⁻¹
10,"COc1cc(CN2C[C@H]3CC(=O)N(c4cc(C(F)(F)F)cc(C)n4)[C@@H]3C(=O)N(C)c3cccc(C)c32)ccc1NC(=O)/C=C/CN(C)C [Example 208, (E)-N-(4-(((3aR, 11aS)-6,10-dimethyl-1-(6-methyl-4-(trifluoromethyl)pyridin-2-yl)-2,11-dioxo-1,2,3,3a,4,10,11,11a-octahydro-5H-benzo[b]pyrrolo [2,3-f][1,4]diazocin-5-yl)methyl)-2-methoxyphenyl)-4-(dimethylamino) but-2-enamide]",4.36e+06 M⁻¹ s⁻¹
11,"C=C(CN(C)C)C(=O)Nc1ccc(CN2C[C@H]3CC(=O)N(c4cc(C(F)(F)F)cc(C)n4)[C@@H]3C(=O)N(C)c3cccc(C)c32)cc1 [Example 209, N-(4-(((3aR,11aS)-6,10-dimethyl-1-(6-methyl-4-(trifluoromethyl)pyridin-2-yl)-2,11-dioxo-1,2,3,3a,4,10,11,11a-octahydro-5H-benzo[b]pyrrolo[2,3-f][1,4]diazocin-5-yl)methyl)phenyl)-2-((dimethylamino)methyl)acrylamide]",530000 M⁻¹ s⁻¹
